The record followed here is patent US7534800B2, “7-azaindoles as inhibitors of c-Jun N-terminal kinases for the treatment of neurodegenerative disorders” (Eisai R & D Development Co., Ltd., priority 2002, dated 2009).

The test deals with JNK3 kinase (Homo sapiens, UniProt P53779). The experiment in a line: JNK3 SPA assay (phosphorylation of GST-c-Jun, [γ-33P] ATP). It counts as biochemical. The following applies: 3.33 μM ATP, GST-c-Jun substrate, 30 minutes at room temperature. As for the experimental part:
JNK1, JNK27 JNK3—SPA Assay
A typical assay for testing the activity of compounds to inhibit JNK1, JNK2 and JNK3 enzymes is as follows: • 1. Compound is dissolved in DMSO to a convenient concentration and this is diluted in 10% DMSO to a five times concentrate of the desired starting concentration (frequently 1:100). • 2. 10 μl of 500 mM EDTA is added to alternative wells of the Opti-plate row, which will receive kinase reaction plus DMSO. This creates the negative control. • 3. For the JNK2 and JNK3 assay, compounds are prepared in six 2-fold dilutions with water and each concentration is tested in duplicate. For the JNK1 assay compounds are prepared in four 5-fold dilutions with water which are tested in triplicate. Controls are treated identically. • 4. 20 μl per well of each compound concentration is transferred to an Opti-plate, in duplicate. • 5. 30 μl (JNK2/3 SPA) or 50 μl (JNK1 SPA) of substrate solution (25 mM HEPES pH 7.5, 10 mM magnesium acetate with 3.33 μm ATP (JNK2/3) or 2 μM ATP (JNK1), approximately 7.5 kBq [γ-33P] ATP, GST-c-Jun, in water) is added to each well. • 6. 50 μl (JNK2/3 SPA) or 30 μl (JNK1 SPA) of kinase solution (JNK in 25 mM HEPES pH 7.5, 10 mM Mg Acetate) is added to each well.
• 7. The plate is incubated for 30 minutes at room temperature. • 8. 100 μl of bead/stop solution is added to each well (5 mg/ml glutathione-PVT-SPA beads, 40 µM ATP in PBS). • 9. Plates are sealed and incubated for 30 minutes at room temperature, centrifuged for 10 minutes at 2500 g and counted. • 10. The IC50 values are calculated as the concentration of the compound being tested at which the phosphorylation of c-Jun is decreased to 50% of the control value.

JNK3 kinase, sequence (P53779 whole entry): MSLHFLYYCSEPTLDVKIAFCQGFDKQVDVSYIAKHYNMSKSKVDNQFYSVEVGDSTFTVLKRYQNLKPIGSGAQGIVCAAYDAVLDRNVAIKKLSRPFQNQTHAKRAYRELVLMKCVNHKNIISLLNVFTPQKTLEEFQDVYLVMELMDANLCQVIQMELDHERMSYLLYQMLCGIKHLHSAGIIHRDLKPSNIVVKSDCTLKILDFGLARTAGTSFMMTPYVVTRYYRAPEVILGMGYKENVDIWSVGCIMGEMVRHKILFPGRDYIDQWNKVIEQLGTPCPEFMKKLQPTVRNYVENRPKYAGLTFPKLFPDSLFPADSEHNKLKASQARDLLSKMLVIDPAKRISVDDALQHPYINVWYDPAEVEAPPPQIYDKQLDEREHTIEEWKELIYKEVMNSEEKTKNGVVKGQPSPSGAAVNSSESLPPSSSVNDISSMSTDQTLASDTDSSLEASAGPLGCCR

As to `O=C(NNc1ccccc1)c1c[nH]c2ncc(-c3cccc(F)c3)cc12`, the IC50 was 780 nM.
The compound `C#CCNC(=O)c1c[nH]c2ncc(-c3cccc(F)c3)cc12` came in with a 50% inhibitory concentration (IC50) of 850 nM. This IC50 and that of the compound before are within 1.5-fold of each other.
Under `C#CCNC(=O)c1c[nH]c2ncc(-c3ccc(N(C)C)cc3)cc12` stands 520 nM.
